The values that follow come from article PMC10093212, “Development of Cyclic Peptides Targeting the Epidermal Growth Factor Receptor in Mesenchymal Triple-Negative Breast Cancer Subtype” (Cells, 2023).

The subject of data set [1] is wild-type MDA-MB-231 cells. As to the kind of experiment: Flow cytometry binding of FITC-conjugated phages. The class given is cell-based, human. Particulars: phage displaying the peptide; compared to 04cys_EGFR and 30cys_EGFR phages. The text has this:
Phages expressing peptide sequences (01cys_EGFR, 04cys_EGFR, 06cys_EGFR, and 30cys_EGFR) and a wild-type M13 phage were conjugated to fluorescein isothiocyanate (FITC) in order to analyze their binding affinity to EGFR on MDA-MB-231 by flow cytometry. The “Pierce FITC Antibody Labeling Kit” (cat #53027—Thermo Fisher Scientific) was used for the conjugation following the manufacturer’s instructions.
(§1) We analyzed the binding of FITC-conjugated phages on MDA-MB231 cells by flow cytometry. A binding assay was also performed with FITC-conjugated peptides to human MDA-MB-231 and BT-549 cells, murine 4T1 cells, and additional EGFR-positive thyroid cancer cell lines K1 and Cal62. To increase the stringency conditions of in vitro binding, adherent cells were incubated with 10 μg/mL of 01cys_EGFR and 06_cys EGFR for 45 min in the dark at 37 °C instead of 4 °C of the standard protocol. Cells were recovered by a cell scraper, then twice washed with PBS and suspended in 300 μL of BD™ FACSFlow™ fluid. Data were acquired on the BD FACSCanto™ II and analyzed with FlowJo software (Becton Dickinson, San Jose, CA, USA).
The binding ability of phages 01cys_EGFR, 04cys_EGFR, 06cys_EGFR, and 30cys_EGFR to the MDA-MB-231 cells were analyzed by flow cytometry. To this end, the phages were conjugated with fluorescein isothiocyanate (FITC) and incubated with wild-type MDA-MB-231 or MDA-MB-231 EGFR- KO cells. […]
On the technique in general: A flow cytometer gives signals particle by particle.

In data set [2] the test system is MDA-MB-231 xenograft tissue. Briefly: Confocal immunofluorescence of tumor xenograft tissue sections with FITC-peptides. More on the design: species or system human. The conditions noted are these: MDA-MB-231 xenograft tissue sections, FITC-peptide 10 μg/mL, 45 min, 37 °C; confocal microscopy. Here is the method:
(§2) OCT-embedded MDA-MB-231 xenograft tissue samples derived from Balb/c nude mice were cut in 8–10 µm sections and mounted onto microscope slides for confocal microscopy analysis. Sections were fixed with 4% paraformaldehyde for 30 min at 4 °C, and then for 45 min, incubated at 4 °C with rabbit polyclonal anti-EGFR (1:100 dilution -Bethyl Laboratories, Inc., Montgomery, TX, USA) followed by Alexa Fluor 568-labeled anti-rabbit secondary antibody (1:500 dilution; Thermo Fisher Scientific). After washing, cells were incubated in the dark with FITC-conjugated peptides (Control, 01_cysEGFR, 06_cysEGFR) (10 μg/mL) for 45 min at 37 °C, anti-Wheat Germ Agglutinin (WGA) Alexa Fluor 647 conjugate (1:200 dilution; Thermo Fisher Scientific) for 45 min, and finally with DAPI at the dilution 1:500 for 10 min. Cells were prepared with mounting medium (ProLong antifade, Thermo Fisher Scientific) and visualized by confocal microscopy (LEICA TCS SP8).
Then, we asked whether the 01_cysEGFR and 06_cysEGFR peptides could be used for in vivo analysis of tumor tissues expressing EGFR. To this end, we generated MDA-MB-231 tumor xenograft in mice and performed confocal microscopy analysis of tumor tissue sections upon immunofluorescence staining with FITC-peptides (green signal) or anti-EGFR (red signal) (Figure 6). […]

In data set [3] the test system is MDA-MB-231 EGFR KO xenograft. The data set is described as above. More on the design: species or system human. The conditions noted are these: MDA-MB-231 EGFR KO xenograft sections, FITC-peptide 10 μg/mL, 45 min, 37 °C; confocal microscopy. Here is the method:
as §2
EGFR was detected in the MDA-MB-231 xenograft tissue sections by an anti-EGFR antibody as a red fluorescence signal, while it was undetected in MDA-MB-231 EGFR KO (Figure 6).

The test system of the next data set is BT549 cells. Briefly: Cell cycle analysis by propidium iodide flow cytometry. The class given is cell-based, human. Particulars: 24 h; for mitogenic activity through the binding to the EGFR: 25 μM, BT549; for cells in G1 phase / cells in G2 phase / cells in S phase: free peptide 25 μM, after 18 h serum starvation, 0.2% FBS, PI staining, two experiments. Here is the method:
BT549 cells (200,000 cells/well) were seeded onto a 6-well plate in RPMI-1640 complete medium. After adhesion, cells were starved in serum-free RPMI-1640 for 18 h, and then the medium was changed to RPMI-1640 supplemented with 0.2% FBS in the presence or absence of control, 01cys_EGFR and 06_cys EGFR peptides (25 μM). After 24 h of peptide stimulation, cells were trypsinized, washed, and suspended in PBS. Cells were fixed with 1 mL of ice-cold 70% ethanol and incubated for 30 min at 4 °C. Fixed cells were washed three times and stained with 50 μg/mL of propidium iodide and 40 μg/mL of RNAse A. Cell cycle profile was acquired by FACS Canto II and analyzed by Flow Jo software 8.8.6 (Becton Dickinson).
Next, we tested whether the peptides 01cys_EGFR and 06cys_EGFR could affect the cell cycle through the binding to EGFR. To this end, BT549 cells were serum starved for 18h to induce synchronization and then treated with 01cys_EGFR, 06cys_EGFR, and the irrelevant control peptides (25 μM) or left untreated for 24 h. Proliferating cells were stained with propidium iodide to analyze cell cycle distribution by flow cytometry (Figure 7A). The cells treated with 01cys_EGFR, 06cys_EGFR, and control peptides were distributed ~26% in G1, ~64% in S, and ~10% in the G2 phase, which was a similar behavior to unstimulated cells (Figure 7B).
Figure 7 (A) The proportion of BT549 cells untreated or treated with 25 μM of control, 01cys_EGFR, and 06cys_EGFR peptides in G1, S, and G2 phases were determined by flow cytometry and quantified by Flow Jo software using Watson Pragmatic method. […] Data are collected from two different experiments and presented as means ± SD. Paired t-test indicates no statistical significance between peptide-stimulated and unstimulated cells.

Data set [4] relates to thyroid cancer cell lines (Cal62 and K1). As to the kind of experiment: Flow cytometry binding of FITC-peptides to EGFR-positive thyroid cancer cells. The class given is cell-based, human. Particulars: Cal62 and K1, especially K1; 10uM FITC-peptide, 45 min; compared with 06cys_EGFR. On the procedure:
as §1
In order to evaluate the binding efficacy of our peptides in other EGFR-overexpressing cancer cell types, we choose two different thyroid cancer cell lines (Cal62 and K1).
Figure S3. Pe p t i d e binding assay in EGFR-positive thyroid cancer cells using ﬂow cytometry. Flow cytometric analysis showing EGFR-overexpressing thyroid cancer cell lines K1 and Cal62 unstained or stained with 10uM of FITC- conjugate peptides (control, 01_cysEGFR and 06cys_EGFR) for 45 […]

For data set [5] the following is noted: cited from earlier work. From the text: (§3) TNBC is the most aggressive form of breast cancer. There are different TNBC subtypes characterized by intratumor heterogeneity based on morphology, gene expression profile, and response to adjuvant chemotherapies. Unfortunately, TNBC is still lacking effective anticancer targets for clinical treatment. This justifies the urgency to explore new biomarkers and therapeutic strategies for improving the survival outcomes of TNBC patients. EGFR is a tyrosine kinase membrane receptor that contains in the extracellular region the docking site for the epidermal growth factor a ...

Another data set deals with MDA-MB-468 cells. Particulars: cited from earlier work.
Source text: as §3

For a further data set, the system named is MDA-MB-231 cells. Particulars: cited from earlier work.
Source text: as §3

Bridge positions count the residues as written; N and C are the ends. Ends that are not written are not given here.

As to “CEKMVATHC (disulfide 1-9 (inferred)) [01cys_EGFR, Phage-display selected cyclic EGFR peptide ligand, one disulphide bond, amidated C-terminus]”, the “binding of FITC-conjugated phage (percentage of fluorescence)” value in data set [1] was “higher efficiency”. For the same sequence, the “green fluorescence signal (FITC-peptide staining)” value (“green fluorescence signal” for short) in data set [2] was “stronger green fluorescence signal”. The “green fluorescence signal” value in data set [3] is recorded as “lack of fluorescence”. Also, in the data set on BT549 cells, the “mitogenic activity through the binding to the EGFR” value was “lacked mitogenic activity”, the “cells in G1 phase” value is ~ 26%, the “cells in G2 phase” value is listed as ~ 10% and the “cells in S phase” value is listed as ~ 64%. Further, the “efficacy of binding to thyroid cancer cells” value in data set [4] is given as “higher efficacy of binding”.
In the case of “CGGNGPGLC (disulfide 1-9 (inferred)) [irrelevant peptide, Irrelevant peptide synthesized as a negative control, reference compound]”, the “green fluorescence signal” value in data set [2] is “lack of green fluorescence signal”. Further, in the data set with BT549 cells, the “cells in G1 phase” value is ~ 26%, the “cells in G2 phase” value is listed as ~ 10% and the “cells in S phase” value is on record as ~ 64%.
“CPSDEHHTC (disulfide 1-9 (inferred)) [06cys_EGFR, Phage-display selected cyclic EGFR peptide ligand, one disulphide bond, amidated C-terminus]”: the “binding of FITC-conjugated phage (percentage of fluorescence)” value in data set [1] is recorded as “higher efficiency”. In the data set with BT549 cells, the “mitogenic activity through the binding to the EGFR” value was “lacked mitogenic activity”, the “cells in G1 phase” value is recorded as ~ 26%, the “cells in G2 phase” value is ~ 10% and the “cells in S phase” value is ~ 64%.
Consider YHWYGYTPENVI [peptide 22], for which the serum stability entry in data set [5] is “low serum stability”. The uptake entry in the data set on MDA-MB-468 cells and in the data set on MDA-MB-231 cells was “highest uptake” each time.
